Values quoted from earlier work, collected in paper PMC11821258 (Molecules, 2025).

Assays:
[1] = system: human colon cancer HCT116 cells; conditions: HCT116, literature data ref 36; cited from earlier work
[2] = system: human breast cancer MCF-7; conditions: MCF-7, literature data ref 36; cited from earlier work
[3] = system: human prostate adenocarcinoma PC-3; conditions: PC-3, literature data ref 36; cited from earlier work
[4] = system: human biphenotypic B myelomonocytic leukemia MV4-11; conditions: MV4-11, literature data ref 36; cited from earlier work
[5] = system: human lung carcinoma A549; conditions: A549, literature data ref 36; cited from earlier work
[6] = system: human normal epithelial cells from the mammary gland (MCF-10A); conditions: literature data ref 36; cited from earlier work

In the case of `COc1cccc2c1C(=O)c1c(O)c3c(c(O)c1C2=O)C[C@@](O)(C(=O)CO)C[C@@H]3O[C@H]1C[C@H](N)[C@H](O)[C@H](C)O1` [C, doxorubicin], the IC50 [1] is given as 118 ± 20 nM, the IC50 [2] is given as 150 ± 15 nM and the IC50 [3] is given as 1270 ± 200 nM. The IC50 [4] was 21 ± 8 nM, the IC50 [5] was 40 ± 12 nM and the IC50 [6] was 114 ± 13 nM.
